For orientation: IC50 means the concentration needed to halve the response being measured. One may read the CC50 as the concentration at which the toxic effect on the cells reaches its halfway point. High values mean lower toxicity to the cells, low ones greater toxicity to the cells. As a reminder, the melting point is the temperature, or range, at which the solid turns liquid.

The test system of data set [1] is promastigote form of Leishmania amazonensis. Kind of data set: Antiproliferative assay, promastigote form of Leishmania amazonensis (XTT, 72 h). The conditions noted are these: for SI L-M, selectivity index (Macrophages CC50/L. amazonensis IC50): J774A1 vs promastigotes; for SI L-E, selectivity index (Epithelial CC50/L. amazonensis IC50): LLCMK2 vs promastigotes; for IC50: Leishmania amazonensis, promastigote form, 72 h, mean ± standard deviation, read-out: L. amazonensis IC50. Format: cell-based. As to the method:
(§1) All the novel trifluoromethylated pyrazoles derivatives 2a–f, 3a–f, and 4a–f were evaluated against the promastigote form of L. amazonensis and the epimastigote form of T. cruzi. The results are reported as the concentration causing a 50% inhibition in cell growth (IC50). Additionally, the toxicity of compounds was evaluated against two different cell lines: epithelial cell LLCMK2 and macrophages J774A1. The antiproliferative and cytotoxic activities are shown in Table 2 , as well as the calculated selectivity index (SI).
(§2) 2.4. Antiproliferative activity
(§3) Promastigotes forms of Leishmania amazonensis (strain WHOM/ BR/75/JOSEFA) were
(§4) cultured in Warren medium (brain heart infusion, hemin, and folic acid; pH 7.4) supplemented with
(§5) 10% fetal bovine serum (FBS) at 25 °C. Epimastigote forms of Trypanosoma cruzi (Y strain) were
(§6) cultured in LIT medium (liver infusion tryptose; hemim, and folic acid; pH 7.4) supplemented with
(§7) Cytotoxicity activity was determined in LLCMK2 (epithelial cells of kidney of Macaca
(§8) mulatta) cells and J774A1 macrophages. LLCMK2 (epithelial cells of kidney of Macaca mulatta) cells
(§9) were cultured in Dulbecco’s modified Eagle’s medium (DMEM, pH 7.2) supplemented with 10% FBS
(§10) at 37 °C in a 5% CO2 atmosphere. J774A1 macrophages were cultured in RPMI-1640 (pH 7.2) medium
(§11) supplemented with 10% FBS at 37 °C in a 5% CO2 atmosphere.
(§12) 2.4.2. Dilution of compounds
(§13) Stock solutions of the compounds were prepared in DMSO and then diluted in the respective
(§14) medium. The groups (controls and treated) were tested with DMSO concentrations below 1%, with
(§15) 2.4.3. Antiproliferative assay
(§16) Promastigote forms (1 × 10^6 parasites/mL) were cultured in 96-well plates in the presence and
(§17) absence of different concentrations of compounds diluted in Warren medium supplemented with 10%
(§18) FBS and incubated for 72h. Epimastigote forms (1 × 10^6 parasites/mL) were cultured in 96 -well plates
(§19) in the presence and absence of different concentrations of compounds diluted in LIT medium
(§20) supplemented with 10% FBS and incubated for 96h. After treatment, the parasites were incu bated with
(§21) a solution of 2,3 -bis (2 -methoxy -4-nitro -5-sulfophenyl) -2H-tetrazolium -5-carboxanilide (XTT; 0.5
(§22) mg/mL) and phenazine methanesulfonate activator (PMS; 0.06 mg/mL) in PBS for 4h. Then, the
(§23) absorbance was read in a microplate reader (Bio Tek - Power Wave XS) at 450 nm. The percentage of
(§24) viable parasites was calculated in relation to the control in order to determine the concentration that
(§25) inhibits 50% of the protozoa (IC 50).
(§26) 2.4.4. Cytotoxicity assay
(§27) LLCMK2 cells (2.5 × 10^5 cells/mL) suspension was prepared in DMEM medium supplemented
(§28) with 10% FBS and added to 96-well plates. Then, the plates were incubated at 37 °C in a
(§29) CO2 atmosphere for 24h to obtain confluent cell growth. After incubation, cells were treated or not
(§30) with different concentrations of compounds diluted in DMEM for 72 h. Macrophage (5 × 10^5 cells/mL)
(§31) suspension was prepared in RPMI-1640 medium supplemented with 10% FBS and added to 96-well
(§32) plates. Then, the plates were incubated at 37 °C in a CO2 atmosphere for 24h to obtain confluent cell
(§33) growth. After incubation, cells were treated or not with different concentrations of compounds diluted
(§34) in RPMI-1640 for 48h. After treatment, medium was removed and cells were incubated with MTT (2
(§35) mg/mL) for 4h. Then, DMSO was added for solubilization of the formazan and analyzed with a reading
(In general: Tetrazolium dyes change colour on reduction, which living cells bring about.)

In data set [2] the test system is epimastigote form of Trypanosoma cruzi. Kind of data set: Antiproliferative assay, epimastigote form of Trypanosoma cruzi (XTT, 96 h). Format: cell-based. The conditions noted are these: for SI T-M, selectivity index (Macrophages CC50/T. cruzi IC50): J774A1 vs epimastigotes; for SI T-E, selectivity index (Epithelial CC50/T. cruzi IC50): LLCMK2 vs epimastigotes; for IC50: Trypanosoma cruzi, epimastigote form, 96 h, mean ± standard deviation, read-out: T. cruzi IC50. Here is the method: as §1, §2, §3, §4, §5, §6, §7, §8, §9, §10, §11, §12, §13, §14, §15, §16, §17, §18, §19, §20, §21, §22, §23, §24, §25, §26, §27, §28, §29, §30, §31, §32, §33, §34, §35

The nature of data set [3]: Cytotoxicity assay in LLCMK2 epithelial cells (MTT, 72 h). Particulars: Macaca mulatta, LLCMK2 kidney epithelial cells, pH 7.2, LLCMK2, 50% inhibition of growth. Format: cell-based. Here is the method: as §1
(§36) 2.4. Antiproliferative activity […]
as §7, §8, §9, §10, §11, §12, §13, §14
(§37) 2.4.3. Antiproliferative assay […]
as §26, §27, §28, §29, §30, §31, §32, §33, §34, §35
(§38) microplate reader (BIO-TEK PowerWave XS spectrophotometer) at 392 nm. The percentage of viable
(§39) cells was calculated in relation to the control to determine the cytotoxic concentration to 50% of the […]

A short description of data set [4]: Cytotoxicity assay in J774A1 macrophages (MTT, 48 h). The class given is cell-based. Particulars: mouse, pH 7.2, J774A1, 50% inhibition of growth. Here is the method:
as §1, §36, §7, §8, §9, §10, §11, §12, §13, §14, §37, §26, §27, §28, §29, §30, §31, §32, §33, §34, §35, §38, §39

In turn, `CSC(N)=NN=Cc1c(C(F)(F)F)nn(-c2ccccc2)c1-c1ccc(Cl)cc1` [3c] came in with a melting point of 188.5 °C. In data set [1], the “SI L-M, selectivity index (Macrophages CC50/L. amazonensis IC50)” value (“SI L-M, selectivity index” for short) is given as 9.80; the “SI L-E, selectivity index (Epithelial CC50/L. amazonensis IC50)” value (“SI L-E, selectivity index” below) was determined as 9.68; the IC50 amounted to 30.7 ± 2.2 µM. For the same compound, in data set [2], the “SI T-M, selectivity index (Macrophages CC50/T. cruzi IC50)” value (from here on “SI T-M, selectivity index”) is on record as 8.09; the “SI T-E, selectivity index (Epithelial CC50/T. cruzi IC50)” value (from here on “SI T-E, selectivity index”) worked out at 7.99; the IC50 came to 37.2 ± 4.8 µM. This compound also displayed a half-maximal cytotoxic concentration (CC50) at 72 h in data set [3] of 297 ± 6.1 µM. In data set [4], this compound gave a CC50 at 48 h of 301 ± 3.9 µM.

Compound `CSC(N)=NN=Cc1c(C(F)(F)F)nn(-c2ccccc2)c1-c1ccccc1` [3e] yielded a melting point of 165.65 °C. Also, in data set [1], the “SI L-M, selectivity index” value was determined as 7.30; the “SI L-E, selectivity index” value is 4.53; the IC50 was 44.7 ± 5 µM. Further, in data set [2], the “SI T-M, selectivity index” value amounted to 5.23; the “SI T-E, selectivity index” value came out at 3.25; the IC50 was 62.4 ± 3.8 µM. Half-maximal cytotoxicity in data set [3] (CC50 at 72 h) was put at 202 ± 6.2 µM. In data set [4], this compound came in with a CC50 at 48 h of 326 ± 4.5 µM.

Regarding `Nc1nnc(-c2c(C(F)(F)F)nn(-c3ccccc3)c2-c2ccc([N+](=O)[O-])cc2)s1` [4a, 4-[(2-amino)-1,3,4-thiadiazo-5-yl]-3-trifluoromethyl-5-(4-nitrophenyl)-1-phenyl-1H-pyrazole], the melting point turned out to be 236.7 °C. Also, in data set [1], the “SI L-M, selectivity index” value is given as 14.56; the “SI L-E, selectivity index” value came to 10.78; the IC50 worked out at 19.6 ± 1.5 µM. Besides, in data set [2], the “SI T-M, selectivity index” value is listed as 9.84; the “SI T-E, selectivity index” value amounted to 7.29; the half-maximal inhibitory concentration (IC50) is 29 ± 2.7 µM. Moreover, in data set [3], the CC50 at 72 h was 211 ± 3.1 µM. This compound displayed a CC50 at 48 h in data set [4] of 285 ± 5.6 µM.

The compound `Nc1nnc(-c2c(C(F)(F)F)nn(-c3ccccc3)c2-c2ccc(F)cc2)s1` [4b, 4-[(2-amino)-1,3,4-thiadiazo-5-yl]-3-trifluoromethyl-5-(4-fluorophenyl)-1-phenyl-1H-pyrazole] showed a melting point of 243.3 °C. Further, in data set [1], the “SI L-M, selectivity index” value came to 6.17; the “SI L-E, selectivity index” value amounted to 3.63; the IC50 came out at 40.4 ± 3.2 µM. Moreover, in data set [2], the “SI T-M, selectivity index” value amounted to 5.99; the “SI T-E, selectivity index” value is 3.52; the IC50 stood at 41.6 ± 5.3 µM. In addition, the CC50 at 72 h in data set [3] is 146 ± 5.4 µM. Further, half-maximal cytotoxicity in data set [4] (CC50 at 48 h) was put at 249 ± 6.2 µM.

For `Nc1nnc(-c2c(C(F)(F)F)nn(-c3ccccc3)c2-c2ccc(Cl)cc2)s1` [4c, 4-[(2-amino)-1,3,4-thiadiazo-5-yl]-5-(4-chlorophenyl)-3-trifluoromethyl-1-phenyl-1H-pyrazole], the melting point is 224.9 °C. In addition, in data set [1], the “SI L-M, selectivity index” value came to 10.67; the “SI L-E, selectivity index” value stood at 9.68; the IC50 was determined as 36.1 ± 2.8 µM. In addition, in data set [2], the “SI T-M, selectivity index” value is reported as 9.51; the “SI T-E, selectivity index” value worked out at 8.63; the IC50 came to 40.5 ± 3.1 µM. For the same compound, the CC50 at 72 h in data set [3] worked out at 350 ± 6.1 µM. For the same compound, the CC50 at 48 h in data set [4] is 385 ± 5.8 µM.

With `Nc1nnc(-c2c(C(F)(F)F)nn(-c3ccccc3)c2-c2ccc(Br)cc2)s1` [4d, 4-[(2-amino)-1,3,4-thiadiazo-5-yl]-5-(4-Bromophenyl)-3-trifluoromethyl-1-phenyl-1H-pyrazole], the melting point was 239.2 °C. Moreover, in data set [1], the “SI L-M, selectivity index” value is listed as 10.01; the “SI L-E, selectivity index” value came out at 8.17; the IC50 is 14.7 ± 0.9 µM. In data set [2], the “SI T-M, selectivity index” value was 5.51; the “SI T-E, selectivity index” value amounted to 4.50; the 50% inhibitory concentration (IC50) worked out at 26.7 ± 1.4 µM. For the same compound, in data set [3], the 50% cytotoxic concentration (CC50) at 72 h was found to be 120 ± 2.5 µM. The CC50 at 48 h in data set [4] was 147 ± 3.2 µM.

For `COc1ccc(-c2c(-c3nnc(N)s3)c(C(F)(F)F)nn2-c2ccccc2)cc1` [4f, 4-[(2-amino)-1,3,4-thiadiazo-5-yl]-3-trifluoromethyl-5-(4-methoxyphenyl)-1-phenyl-1H-pyrazole], the melting point was found to be 239.1 °C. Also, in data set [1], the “SI L-M, selectivity index” value was 9.14; the “SI L-E, selectivity index” value was determined as 7.83; the IC50 amounted to 17.1 ± 1.6 µM. Further, in data set [2], the “SI T-M, selectivity index” value is 6.86; the “SI T-E, selectivity index” value came out at 5.87; the IC50 amounted to 22.8 ± 1.2 µM. Besides, half-maximal cytotoxicity in data set [3] (CC50 at 72 h) was put at 134 ± 5.1 µM. This compound gave a CC50 at 48 h in data set [4] of 156 ± 4.1 µM.

In turn, `O=Cc1c(C(F)(F)F)nn(-c2ccccc2)c1-c1ccc([N+](=O)[O-])cc1` [compound 5, 3-trifluoromethyl-4-formyl-5-(4-nitrophenyl)-1-phenyl-1H-pyrazole] gave a melting point of 155.2 to 156.1 °C. Further, in data set [1], the “SI L-M, selectivity index” value was 3.35; the “SI L-E, selectivity index” value worked out at 5.76; the IC50 worked out at 73.1 ± 2.8 µM. In data set [2], the “SI T-M, selectivity index” value is listed as 3.03; the “SI T-E, selectivity index” value came out at 5.22; the IC50 came out at 80.8 ± 3.7 µM. Moreover, the CC50 at 72 h in data set [3] came out at 422 ± 12.3 µM. Moreover, the midpoint of cytotoxicity in data set [4], the CC50 at 48 h, lay at 245 ± 2.7 µM.

(Values after paper PMC7576996, “Antiparasitic Behavior of Trifluoromethylated Pyrazole 2-Amino-1,3,4-thiadiazole Hybrids and Their Analogues: Synthesis and Structure-Activity Relationship” (Frontiers in Pharmacology, 2020).)
